Among the test systems are HOP-92 NSCLC; KM12 colon; A498 renal; SF-295 CNS; HCT-15 colon; MALME-3M melanoma; NCI-H226 lung; COLO 205 colon; SNB-75 CNS; SR leukemia.
Holding throughout (experiment): inhibition of tumour cell growth, NCI panel, 48 h

Molecules are shown by their SMILES.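 How tested: cells in 96-well plates exposed to compound for 48 hours at five concentrations. At the GI50, growth is halved. TGI: concentration producing complete growth inhibition.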

Regarding `CCCCCCCCCCCCCCCc1ccc(C(=O)C[n+]2ccccc2)cc1`, the GI50 in the experiment with HOP-92 NSCLC is 0.295 µM; in the experiment with KM12 colon, 0.523 µM; with A498 renal, 1.1 µM; in the experiment on SF-295 CNS it was 0.653 µM; with HCT-15 colon, 1.03 µM; in the experiment on MALME-3M melanoma, 1.75 µM. For the same molecule, the figures for the GI50 with NCI-H226 lung and in the experiment on COLO 205 colon were 4.15 µM and 0.475 µM, respectively. Further, the TGI came out at 3.93 µM in the experiment on HOP-92 NSCLC; 1.59 µM with KM12 colon; 8.33 µM in the experiment on A498 renal; 14.2 µM in the experiment with SF-295 CNS; 2.56 µM in the experiment on HCT-15 colon; 4.95 µM in the experiment on MALME-3M melanoma. The TGI is above 100 µM in the experiment with NCI-H226 lung and 1.67 µM in the experiment on COLO 205 colon.
As to `NC(=O)OCc1c(O)c2c(c(O)c1COC(N)=O)C(=O)C=CC2=O`, the TGI in the experiment on SNB-75 CNS, in the experiment with HOP-92 NSCLC, with KM12 colon, in the experiment with A498 renal, in the experiment on SF-295 CNS and in the experiment on HCT-15 colon was above 100 µM in each case. Besides, the TGI in the experiment on MALME-3M melanoma, in the experiment on NCI-H226 lung, in the experiment on SR leukemia and in the experiment with COLO 205 colon was above 100 µM in each case.
Consider `COc1ccc(C2C(Cl)C(=O)N2NC(=O)c2ccc(NC(C)=O)cc2)cc1OC` (configuration not stated), for which the TGI in the experiment with SNB-75 CNS, with HOP-92 NSCLC, in the experiment on KM12 colon, with SF-295 CNS, in the experiment with MALME-3M melanoma and in the experiment with NCI-H226 lung was above 100 µM in each case. The TGI with SR leukemia and with COLO 205 colon was above 100 µM in each case.
`N=C(N)c1ccc(-c2ccc(-c3ccccc3)o2)cc1`: the GI50 with SNB-75 CNS was 1.45 µM; in the experiment on HOP-92 NSCLC, 1.95 µM; in the experiment with KM12 colon, 1.86 µM; with A498 renal it was 2.85 µM; in the experiment on HCT-15 colon it was 1.64 µM; in the experiment with MALME-3M melanoma, 1.55 µM. Moreover, the GI50 was 7.93 µM in the experiment with NCI-H226 lung, 1.67 µM in the experiment with SR leukemia and 1.66 µM in the experiment with COLO 205 colon. Further, the TGI with SNB-75 CNS worked out at 3.43 µM; in the experiment with HOP-92 NSCLC, 4.14 µM; with KM12 colon, 3.58 µM; in the experiment on A498 renal it was 9.46 µM; in the experiment with HCT-15 colon it was 3.24 µM; in the experiment with MALME-3M melanoma, 3.12 µM. Further, the TGI worked out at 27.7 µM with NCI-H226 lung, 5.29 µM in the experiment with SR leukemia and 3.42 µM in the experiment with COLO 205 colon.
`O=C(Nc1ccc(-n2cc(-c3ccncc3)c(-c3ccc(O)c(Cl)c3)n2)cc1)c1ccc(Cl)c(Cl)c1`: the GI50 is 2.64 µM with SNB-75 CNS; 0.819 µM with HOP-92 NSCLC; 1.63 µM in the experiment with KM12 colon; above 32.5 µM in the experiment with A498 renal; 0.833 µM with SF-295 CNS; 0.708 µM in the experiment with HCT-15 colon. The GI50 was 2.47 µM in the experiment with MALME-3M melanoma, above 32.5 µM in the experiment with NCI-H226 lung, 1.19 µM in the experiment on SR leukemia and above 32.5 µM in the experiment with COLO 205 colon. The TGI in the experiment with SNB-75 CNS was above 32.5 µM; with HOP-92 NSCLC, 20.5 µM; in the experiment with KM12 colon, above 32.5 µM; in the experiment on A498 renal, above 32.5 µM; in the experiment on SF-295 CNS it was 2.26 µM; in the experiment on HCT-15 colon, above 32.5 µM. Also, the TGI in the experiment with MALME-3M melanoma, in the experiment with NCI-H226 lung, with SR leukemia and in the experiment with COLO 205 colon was above 32.5 µM each time.

Values taken from PubChem BioAssay (NCI).
